Legend:
[1] = target: T1, 5-hydroxytryptamine receptor 6 (Homo sapiens, UniProt P50406); assay: Displacement of [3H]LSD from human HT6 receptor expressed in HeLa cells at 1 uM relative to serotonin; assay type: cell-based
[2] = target: T1, 5-hydroxytryptamine receptor 6; assay: Displacement of [3H]LSD from human HT6 receptor expressed in human HeLa cells; assay type: cell-based
[3] = target: T1, 5-hydroxytryptamine receptor 6; assay: Antagonistic activity at human HT6 receptor expressed in HeLa cells assessed as intracellular cAMP level by radioimmunoassay relative to serotonin; assay type: functional, cell-based
[4] = target: T1, 5-hydroxytryptamine receptor 6; assay: Antagonistic activity at human HT6 receptor expressed in HeLa cells assessed as intracellular cAMP level by radioimmunoassay; assay type: functional, cell-based
[5] = target: T1, 5-hydroxytryptamine receptor 6; assay: Agonistic activity at human HT6 receptor expressed in HeLa cells assessed as intracellular cAMP level by radioimmunoassay
[6] = target: T1, 5-hydroxytryptamine receptor 6; assay: Agonist activity at human HT6 receptor expressed in human HeLa cells assessed as intracellular cAMP level by radioimmunoassay relative to serotonin; assay type: functional, cell-based

T1 sequence (P50406 whole entry): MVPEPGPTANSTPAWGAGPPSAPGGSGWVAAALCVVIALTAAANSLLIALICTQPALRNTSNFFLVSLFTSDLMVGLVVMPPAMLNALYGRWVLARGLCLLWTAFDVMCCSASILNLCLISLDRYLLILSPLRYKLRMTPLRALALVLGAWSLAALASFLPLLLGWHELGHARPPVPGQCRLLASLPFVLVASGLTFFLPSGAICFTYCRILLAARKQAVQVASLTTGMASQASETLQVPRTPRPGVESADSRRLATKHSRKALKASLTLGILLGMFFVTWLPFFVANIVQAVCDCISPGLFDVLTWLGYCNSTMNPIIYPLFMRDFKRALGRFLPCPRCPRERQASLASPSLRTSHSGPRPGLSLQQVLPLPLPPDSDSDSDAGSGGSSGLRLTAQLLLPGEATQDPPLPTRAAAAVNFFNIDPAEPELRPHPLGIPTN

SMILES | Ki [2] [nM] | Emax [6] [%] | also measured
CN(C)CCn1cc(S(=O)(=O)c2ccccc2)c2cnccc21 |  |  | Activity [1]: 39%
Cc1cccc(S(=O)(=O)c2cn(CCN)c3cccnc23)c1 | 46 |  | 
CN(C)CCn1cc(S(=O)(=O)c2ccccc2)c2ncccc21 | 368 |  | 
CC(=O)c1ccc2c(n1)c(S(=O)(=O)c1ccc(Br)cc1)cn2CCN(C)C | 3.9 |  | Imax [3]: 100%; IC50 [4]: 385 nM
CN(C)CCn1cc(S(=O)(=O)c2ccccc2)c2cc(Cl)ncc21 |  |  | Activity [1]: 55%
COc1ccc2c(n1)c(S(=O)(=O)c1cccc3ccccc13)cn2CCN(C)C | 1.7 |  | Emax [3]: 100%; IC50 [4]: 295 nM
NCCn1cc(S(=O)(=O)c2c(Cl)nc3sccn23)c2ncccc21 | 42 |  | 
COc1ccc2c(n1)c(S(=O)(=O)c1cccc(F)c1)cn2CCN(C)C | 11.3 |  | Emax [3]: 91%; IC50 [4]: 41 nM
CC(=O)c1ccc2c(n1)c(S(=O)(=O)c1ccccc1)cn2CCN(C)C | 56 |  | 
NCCn1cc(S(=O)(=O)c2cccc(Cl)c2)c2ncccc21 | 35 | 56 | EC50 [5]: 197 nM
CN(C)CCn1cc(S(=O)(=O)c2ccccc2)c2cccnc21 |  | 94 | 
NCCn1cc(S(=O)(=O)c2cccc(F)c2)c2ncccc21 | 76 | 51 | EC50 [5]: 823 nM
CN(C)CCn1cc(S(=O)(=O)c2cccc(F)c2)c2cccnc21 |  | 100 | 

From ChEMBL document CHEMBL1156145, “1-(2-Aminoethyl)-3-(arylsulfonyl)-1H-pyrrolopyridines are 5-HT(6) receptor ligands” (Bioorg Med Chem Lett, 2009)
